Source: patent EP0693481A1, “Prodrugs of 5,5-diphenylhydantoin as antiepileptic and antiarrhythmic agents” (LABORATORIOS RUBIO, S.A., priority 1994, dated 1996)
Counter-ions that a name gives are not always drawn. Like-named read-outs stand apart in the source and are kept apart here. Each block holds one molecule with its values, some of them ahead of it.

Test: Hydrolisis rate of prodrug in whole rat blood (Franz-type cell, phenytoin measured by HPLC)
Type: in vitro ADME
Conditions: for hydrolisis (rate, in words): blood hydrolisis, summary statement on Tables 1 and 2; for metabolised at 10 s: time 0.17 min; for metabolised at 20 s: time 0.33 min; for metabolised at 0.5 min: time 0.50 min; for metabolised at 0.025 h: time 1.5 min; for metabolised at 0.8 h: time 48.00 min; for metabolised at 15 s: time 0.25 min; for metabolised at 0.25 h: time 15.00 min; for metabolised at 1 h: time 60.00 min; for metabolised at 2.45 h: time 147.00 min; for metabolised at 3.15 h: time 189.00 min
Description: To study the hydrolisis of prodrugs in blood, Franz-type permeation cells of the company Crown Glass Co. Somerville, N.Y. have been used. The receiving compartment is used which allows for water recirculation using a glass packet in order to keep the system at 37 °C. This compartment is equipped with magnetic stirring.
For the experiment, male Wistar albino rats weighing 200-275 g, bred and selected at the stabularium of the School of Pharmacy of Barcelona, were used. The animals were fasted for 20 hours before starting the trials, but they were given water ad libitum throughout this period. In order to avoid coprophagy, the animals were placed in cages with a broad wire netting bottom.
After anesthesizing the rat, blood was drawn by cardiac puncture. A known amount of blood (10 ml) containing a prodrug concentration of 40 µg/ml was introduced through the lateral tubes of the receiving compartment of Franz cells. The system was kept at 37 °C and stirred magnetically, samples were taken (1 ml) and phenytoin was measured in each of them by HPLC.
The analytical methods were validated prior to estimating phenytoin levels in blood samples.
As in the previous case, three replicates of the tested product were used.

[1] = rat, whole blood, whole rat blood, 37 °C, prodrug 40 µg/ml, mean of replicates, read-out: % HYDROLISIS IN WHOLE BLOOD, m ± s.d.
[2] = rat, whole blood, whole rat blood, 37 °C, prodrug 40 µg/ml, replicate 1, read-out: % HYDROLISIS IN WHOLE BLOOD
[3] = rat, whole blood, whole rat blood, 37 °C, prodrug 40 µg/ml, replicate 2, read-out: % HYDROLISIS IN WHOLE BLOOD
[4] = rat, whole blood, whole rat blood, 37 °C, prodrug 40 µg/ml, replicate 3, read-out: % HYDROLISIS IN WHOLE BLOOD
[5] = rat, whole blood, whole rat blood, 37 °C, mean of replicates, read-out: % HYDROLISIS IN WHOLE BLOOD, m ± s.d.
[6] = rat, whole blood, whole rat blood, 37 °C, replicate 1, read-out: % HYDROLISIS IN WHOLE BLOOD
[7] = rat, whole blood, whole rat blood, 37 °C, replicate 2, read-out: % HYDROLISIS IN WHOLE BLOOD
[8] = rat, whole blood, whole rat blood, 37 °C, replicate 3, read-out: % HYDROLISIS IN WHOLE BLOOD

Compound: CN1CCN(CC(=O)OCN2C(=O)NC(c3ccccc3)(c3ccccc3)C2=O)CC1 [IX, 5,5-diphenyl-3-[(4-methylpiperazinyl)-acetoxymethyl]hydantoin dihydrochloride]
hydrolisis (rate, in words): virtually instantaneous | metabolised at 10 s [1]: 100 ± 7.96% | metabolised at 10 s [2]: 99% | metabolised at 10 s [3]: 109% | metabolised at 10 s [4]: 93.1% | metabolised at 20 s [1]: 102 ± 20.8% | metabolised at 20 s [2]: 85.6% | metabolised at 20 s [3]: 95.8% | metabolised at 20 s [4]: 126% | metabolised at 0.5 min [1]: 102 ± 13.2% | metabolised at 0.5 min [2]: 92.7% | metabolised at 0.5 min [3]: 96.5% | metabolised at 0.5 min [4]: 117% | metabolised at 0.025 h [1]: 104 ± 7.14% | metabolised at 0.025 h [2]: 95.8% | metabolised at 0.025 h [3]: 108% | metabolised at 0.025 h [4]: 109% | metabolised at 5 min [1]: 109% | metabolised at 5 min [2]: 105% | metabolised at 5 min [3]: 117% | metabolised at 5 min [4]: 105% | metabolised at 16 min [1]: 115 ± 5.79% | metabolised at 16 min [3]: 119% | metabolised at 16 min [4]: 110% | metabolised at 0.8 h [1]: 100 ± 3.91% | metabolised at 0.8 h [2]: 97.2% | metabolised at 0.8 h [3]: 99.4% | metabolised at 0.8 h [4]: 105% | metabolised at 115 min (rat, whole blood, whole rat blood, 37 °C, prodrug 40 µg/ml, time 115.00 min, replicate 2): 99.7%

hydrolisis (rate, in words): much more slower | metabolised at 0.5 min [1]: 8.47 ± 2.79% | metabolised at 0.5 min [2]: 6.37% | metabolised at 0.5 min [3]: 7.41% | metabolised at 0.5 min [4]: 11.7% | metabolised at 15 s [5]: 4.72 ± 1.84% | metabolised at 15 s [6]: 3.42% | metabolised at 15 s [7]: 6.03% | metabolised at 2 min [5]: 15.1 ± 7.72% | metabolised at 2 min [6]: 10.5% | metabolised at 2 min [7]: 10.8% | metabolised at 2 min [8]: 24% | metabolised at 7 min [5]: 33.2 ± 12.3% | metabolised at 7 min [6]: 21.4% | metabolised at 7 min [7]: 32% | metabolised at 7 min [8]: 46% | metabolised at 0.25 h [5]: 59.6 ± 29.8% | metabolised at 0.25 h [6]: 38.9% | metabolised at 0.25 h [7]: 46.1% | metabolised at 0.25 h [8]: 93.8% | metabolised at 1 h [5]: 77.7 ± 4.6% | metabolised at 1 h [6]: 74.5% | metabolised at 1 h [7]: 81% | metabolised at 2.45 h [5]: 81.31 ± 0.47% | metabolised at 2.45 h [6]: 81% | metabolised at 2.45 h [7]: 81.7% | metabolised at 3.15 h [5]: 88.5 ± 13.1% | metabolised at 3.15 h [6]: 79.3% | metabolised at 3.15 h [7]: 97.7%
Compound: O=C1NC(c2ccccc2)(c2ccccc2)C(=O)N1COP(=O)(O)O [XI, disodium salt of 5,5-diphenyl-3-(hydroxymethyl]hydantoin phosphoric ester]
